Here are results for ten substances from patent US11214803B2, “Modulators of YAP1 expression” (Ionis Pharmaceuticals, Inc., priority 2019, dated 2022).

Strand notation (5' to 3'): a small letter for the sugar, then the base; units joined by * are phosphorothioate-linked, units joined directly phosphodiester-linked; [ ] holds rarer units or linkages, { } end groups; capitals alone tell only the bases. k = constrained ethyl (cEt); [5mC] = 5-methylcytosine; d = 2'-deoxy (DNA)

For series [1], the system named is Yap1 mRNA. The series is described as follows: Antisense inhibition of human Yap1 in A-431 cells by cEt gapmers, single dose (Example 3, RTS36584). The series is classed as cell-based. The method, boiled down: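 Single-dose free-uptake screen of 3-10-3 cEt gapmers in A-431 cells at 2,000 nM over about 48 h. Values are % untreated control Yap1 mRNA.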
In series [2] the test system is Yap1 mRNA. The series is described as follows: Dose-dependent inhibition of human Yap1 in A-431 cells (Example 8, 10,000 cells per well, RTS4814). The series is classed as cell-based. As to conditions: for Yap1 mRNA, % UTC: A-431 cells, 10,000 cells per well; for IC50 / % UTC (Yap1 mRNA): A-431 cells. The method, boiled down: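 A-431 cells (10,000/well) dosed with modified oligonucleotides by free uptake; Yap1 mRNA measured ~48 h later with primer-probe set RTS4814, normalized to total RNA (RIBOGREEN). Values are % of untreated control; IC50 from linear regression on log/linear plot.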

Where [3] appears, read: Table 26, Yap1 mRNA by 3-10-3 cEt gapmers targeting SEQ ID NO.: 1, and 2, percent of untreated control.
Setting [4] is: 31.3 nM, free uptake, approximately 48 hours, RTS4814.
[5] abbreviates: 125.0 nM, free uptake, approximately 48 hours, RTS4814.
Where [6] appears, read: 500.0 nM, free uptake, approximately 48 hours, RTS4814.
Setting [7] is: 2000.00 nM, free uptake, approximately 48 hours, RTS4814.
Setting [8] is: free uptake, approximately 48 hours, RTS4814, linear regression on log/linear plot.
[9] abbreviates: Table 29, Yap1 mRNA as percent of untreated control, 3-10-3 cEt gapmers targeting SEQ ID NO.: 1, and 2.
[10] abbreviates: Table 35, Yap1 mRNA as percent of untreated control, 3-10-3 cEt gapmers targeting SEQ ID NO: 1 and 2, single dose.

Broadly, the IC50 is the concentration at which inhibition is half-maximal. A low value points to higher potency. On to “1076396 (antisense k[5mC]*kT*kA*dT*dA*dT*dT*dT*dG*dA*dG*d[5mC]*d[5mC]*kA*kT*kG) [compound 1076396]”, for which the “YAP1 (% UTC)” value in the series with Yap1 mRNA [1] (setting [3]) is 2 % UTC. The “Yap1 mRNA, % UTC” value in the series with Yap1 mRNA [2] (setting [4]) was found to be 64 % UTC; in the series with Yap1 mRNA [2] (setting [5]), 22 % UTC; in the series with Yap1 mRNA [2] (setting [6]), 5 % UTC; in the series on Yap1 mRNA [2] (setting [7]) it was 3 % UTC. The concentration for half-maximal inhibition (IC50) in the series on Yap1 mRNA [2] (setting [8]) is 40 nM.

For “1075983 (kA*kT*k[5mC]*dG*dA*dA*dA*dA*dG*d[5mC]*dA*dA*dA*k[5mC]*kT*k[5mC]; antisense) [compound 1075983]”, the “YAP1 (% UTC)” value in the series with Yap1 mRNA [1] (setting [9]) stood at 5 % UTC. Besides, the “Yap1 mRNA, % UTC” value with Yap1 mRNA [2] (setting [4]) is given as 81 % UTC; in the series on Yap1 mRNA [2] (setting [5]), 46 % UTC; with Yap1 mRNA [2] (setting [6]), 17 % UTC; in the series with Yap1 mRNA [2] (setting [7]), 6 % UTC. This substance registered a 50% inhibitory concentration (IC50) with Yap1 mRNA [2] (setting [8]) of 100 nM.

For the substance “1074351 (antisense kA*kT*kG*d[5mC]*dT*dT*dA*dG*dT*d[5mC]*d[5mC]*dA*d[5mC]*kT*kG*kT) [compound 1074351]”, the “YAP1 (% UTC)” value in the series with Yap1 mRNA [1] (setting [9]) came to 7 % UTC. The “Yap1 mRNA, % UTC” value in the series on Yap1 mRNA [2] (setting [4]) was 69 % UTC; in the series on Yap1 mRNA [2] (setting [5]), 33 % UTC; in the series on Yap1 mRNA [2] (setting [6]), 13 % UTC; in the series on Yap1 mRNA [2] (setting [7]), 7 % UTC. Besides, the IC50 in the series on Yap1 mRNA [2] (setting [8]) is 100 nM.

“1076367 (antisense k[5mC]*kT*kA*dT*dT*dT*dA*d[5mC]*dA*dT*dG*dA*dG*kA*kG*kG) [compound 1076367]”: in the series on Yap1 mRNA [1] (setting [9]), the “YAP1 (% UTC)” value is 3 % UTC. For the same substance, the “Yap1 mRNA, % UTC” value in the series with Yap1 mRNA [2] (setting [4]) is recorded as 31 % UTC; in the series on Yap1 mRNA [2] (setting [5]) it was 10 % UTC; with Yap1 mRNA [2] (setting [6]), 4 % UTC; in the series on Yap1 mRNA [2] (setting [7]) it was 3 % UTC. In the series on Yap1 mRNA [2] (setting [8]), this substance registered an IC50 of under 20 nM.

Regarding “1074485 (kT*kT*k[5mC]*dA*d[5mC]*dT*dA*dA*dT*dA*dT*dG*dG*kT*k[5mC]*kA; antisense) [compound 1074485]”, the “YAP1 (% UTC)” value in the series on Yap1 mRNA [1] (setting [10]) is 4 % UTC. The “% UTC (Yap1 mRNA)” value in the series on Yap1 mRNA [2] (31.3 nM) turned out to be 47 % UTC; in the series on Yap1 mRNA [2] (125.0 nM), 14 % UTC; in the series with Yap1 mRNA [2] (500.0 nM) it was 5 % UTC; in the series on Yap1 mRNA [2] (2000.00 nM) it was 3 % UTC. This substance displayed an IC50 with Yap1 mRNA [2] (Yap1 mRNA) of under 20 nM.

Take “1074444 (kA*k[5mC]*kA*dT*dT*dT*dT*dT*dG*dG*d[5mC]*dT*dT*kG*kT*k[5mC]; antisense) [compound 1074444]”: in the series with Yap1 mRNA [1] (setting [3]), the “YAP1 (% UTC)” value came to 3 % UTC. Besides, the “Yap1 mRNA, % UTC” value in the series on Yap1 mRNA [2] (setting [4]) is recorded as 49 % UTC; in the series with Yap1 mRNA [2] (setting [5]), 21 % UTC; with Yap1 mRNA [2] (setting [6]), 7 % UTC; with Yap1 mRNA [2] (setting [7]) it was 4 % UTC. This substance returned a concentration for half-maximal inhibition (IC50) in the series with Yap1 mRNA [2] (setting [8]) of under 20 nM.

Take “1074420 (kG*kA*kT*dT*d[5mC]*dT*dT*dT*dA*dG*dA*dG*d[5mC]*k[5mC]*kA*kA; antisense) [compound 1074420]”: the “YAP1 (% UTC)” value in the series on Yap1 mRNA [1] (Table 34, Yap1 mRNA as percent of untreated control, 3-10-3 cEt gapmers targeting SEQ ID NO: 1 and 2, single dose) came out at 2 % UTC. Moreover, the “Yap1 mRNA, % UTC” value with Yap1 mRNA [2] (setting [4]) is given as 38 % UTC; in the series with Yap1 mRNA [2] (setting [5]) it was 8 % UTC; in the series with Yap1 mRNA [2] (setting [6]), 3 % UTC; in the series with Yap1 mRNA [2] (setting [7]) it was 2 % UTC. Besides, the IC50 in the series on Yap1 mRNA [2] (setting [8]) is under 20 nM.

Take “1074508 (kG*kA*kG*dA*dG*dA*dG*d[5mC]*dA*dG*dA*dT*dA*kA*kT*k[5mC]; antisense) [compound 1074508]”: the “YAP1 (% UTC)” value in the series with Yap1 mRNA [1] (setting [3]) stood at 7 % UTC. For the same substance, the “Yap1 mRNA, % UTC” value with Yap1 mRNA [2] (setting [4]) stood at 62 % UTC; in the series with Yap1 mRNA [2] (setting [5]), 30 % UTC; in the series with Yap1 mRNA [2] (setting [6]), 14 % UTC; in the series on Yap1 mRNA [2] (setting [7]) it was 8 % UTC. The IC50 with Yap1 mRNA [2] (setting [8]) turned out to be 50 nM.

In the case of “1074477 (kG*kT*kT*d[5mC]*d[5mC]*dG*dA*d[5mC]*dA*dA*dA*dA*d[5mC]*k[5mC]*kA*kA; antisense) [compound 1074477]”, the “YAP1 (% UTC)” value in the series with Yap1 mRNA [1] (Table 27, Yap1 mRNA by 3-10-3 cEt gapmers targeting SEQ ID NO.: 1, and 2, percent of untreated control) stood at 10 % UTC. The “Yap1 mRNA, % UTC” value is listed as 77 % UTC in the series on Yap1 mRNA [2] (setting [4]), 48 % UTC in the series with Yap1 mRNA [2] (setting [5]), 20 % UTC with Yap1 mRNA [2] (setting [6]) and 12 % UTC in the series with Yap1 mRNA [2] (setting [7]). Moreover, in the series with Yap1 mRNA [2] (setting [8]), inhibition was half-maximal at 100 nM (IC50).

Regarding “1074613 (DNA k[5mC]*kA*kT*dA*dG*d[5mC]*dT*dT*dA*dT*dA*dT*dT*kG*kA*kA; antisense) [compound 1074613]”, the “YAP1 (% UTC)” value in the series with Yap1 mRNA [1] (setting [10]) amounted to 7 % UTC. Besides, the “% UTC (Yap1 mRNA)” value with Yap1 mRNA [2] (31.3 nM) is 63 % UTC; with Yap1 mRNA [2] (125.0 nM), 23 % UTC; with Yap1 mRNA [2] (500.0 nM), 9 % UTC; with Yap1 mRNA [2] (2000.00 nM), 6 % UTC. The same substance showed a half-inhibitory concentration (IC50) with Yap1 mRNA [2] (Yap1 mRNA) of 40 nM.
